Earlier results as cited in patent US20190307734A1 (Zhuhai Beihai Biotech Co., Ltd., priority 2016, published 2019).

How the values were obtained:
CYP 2C19 = CYP 2C19 (Homo sapiens, UniProt P33261); conditions: in vitro
[1] = tested on: cytochrome P450 3A4 (CYP3A4)
CYP 2D6 = CYP 2D6 (Homo sapiens, UniProt P10635); conditions: in vitro
CYP 2C9 = CYP 2C9 (Homo sapiens, UniProt P11712); conditions: in vitro
p-glycoprotein = p-glycoprotein (Homo sapiens, UniProt P08183); conditions: in vitro
[2] = not given; remark: listed apart in the source

Sequence of CYP 2C19 (P33261 whole entry): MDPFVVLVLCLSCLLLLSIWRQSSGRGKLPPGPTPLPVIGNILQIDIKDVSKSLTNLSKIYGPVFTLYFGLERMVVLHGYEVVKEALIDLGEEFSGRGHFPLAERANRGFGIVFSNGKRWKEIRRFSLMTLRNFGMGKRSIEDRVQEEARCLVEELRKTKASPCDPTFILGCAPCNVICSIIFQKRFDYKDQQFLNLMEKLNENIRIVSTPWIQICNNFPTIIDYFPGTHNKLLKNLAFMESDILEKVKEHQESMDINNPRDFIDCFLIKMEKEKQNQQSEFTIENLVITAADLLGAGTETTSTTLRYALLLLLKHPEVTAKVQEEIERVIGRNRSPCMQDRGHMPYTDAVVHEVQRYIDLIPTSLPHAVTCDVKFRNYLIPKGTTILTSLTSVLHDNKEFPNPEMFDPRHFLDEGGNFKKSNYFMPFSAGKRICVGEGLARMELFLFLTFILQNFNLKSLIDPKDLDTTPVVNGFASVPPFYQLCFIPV
Sequence of CYP 2D6 (P10635 whole entry): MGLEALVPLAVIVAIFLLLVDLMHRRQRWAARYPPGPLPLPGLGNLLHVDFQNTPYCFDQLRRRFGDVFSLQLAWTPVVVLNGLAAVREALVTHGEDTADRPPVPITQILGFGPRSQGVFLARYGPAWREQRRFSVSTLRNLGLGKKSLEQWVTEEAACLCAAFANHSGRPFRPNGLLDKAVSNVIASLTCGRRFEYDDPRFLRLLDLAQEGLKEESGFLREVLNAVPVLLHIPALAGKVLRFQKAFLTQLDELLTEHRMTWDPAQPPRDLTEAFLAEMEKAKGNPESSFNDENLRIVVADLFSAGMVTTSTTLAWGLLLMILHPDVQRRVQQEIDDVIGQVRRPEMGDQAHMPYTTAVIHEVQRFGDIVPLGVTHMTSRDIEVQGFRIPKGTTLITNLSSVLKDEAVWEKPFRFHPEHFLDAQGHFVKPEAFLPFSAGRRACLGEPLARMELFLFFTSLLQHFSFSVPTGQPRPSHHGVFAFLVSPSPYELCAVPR
Sequence of CYP 2C9 (P11712 whole entry): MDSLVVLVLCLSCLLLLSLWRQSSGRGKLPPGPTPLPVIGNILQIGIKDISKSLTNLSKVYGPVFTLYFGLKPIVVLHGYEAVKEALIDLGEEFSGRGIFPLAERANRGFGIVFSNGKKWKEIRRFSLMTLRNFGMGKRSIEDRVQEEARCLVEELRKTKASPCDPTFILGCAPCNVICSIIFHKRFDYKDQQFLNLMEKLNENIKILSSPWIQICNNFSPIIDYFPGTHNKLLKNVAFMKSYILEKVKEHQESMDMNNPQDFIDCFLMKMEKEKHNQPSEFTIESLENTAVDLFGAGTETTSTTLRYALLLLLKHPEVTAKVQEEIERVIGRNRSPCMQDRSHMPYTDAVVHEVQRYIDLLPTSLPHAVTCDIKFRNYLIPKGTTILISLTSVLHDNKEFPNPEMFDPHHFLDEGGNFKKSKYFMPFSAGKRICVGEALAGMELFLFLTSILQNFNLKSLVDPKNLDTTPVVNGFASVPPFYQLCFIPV
Sequence of p-glycoprotein (P08183 whole entry): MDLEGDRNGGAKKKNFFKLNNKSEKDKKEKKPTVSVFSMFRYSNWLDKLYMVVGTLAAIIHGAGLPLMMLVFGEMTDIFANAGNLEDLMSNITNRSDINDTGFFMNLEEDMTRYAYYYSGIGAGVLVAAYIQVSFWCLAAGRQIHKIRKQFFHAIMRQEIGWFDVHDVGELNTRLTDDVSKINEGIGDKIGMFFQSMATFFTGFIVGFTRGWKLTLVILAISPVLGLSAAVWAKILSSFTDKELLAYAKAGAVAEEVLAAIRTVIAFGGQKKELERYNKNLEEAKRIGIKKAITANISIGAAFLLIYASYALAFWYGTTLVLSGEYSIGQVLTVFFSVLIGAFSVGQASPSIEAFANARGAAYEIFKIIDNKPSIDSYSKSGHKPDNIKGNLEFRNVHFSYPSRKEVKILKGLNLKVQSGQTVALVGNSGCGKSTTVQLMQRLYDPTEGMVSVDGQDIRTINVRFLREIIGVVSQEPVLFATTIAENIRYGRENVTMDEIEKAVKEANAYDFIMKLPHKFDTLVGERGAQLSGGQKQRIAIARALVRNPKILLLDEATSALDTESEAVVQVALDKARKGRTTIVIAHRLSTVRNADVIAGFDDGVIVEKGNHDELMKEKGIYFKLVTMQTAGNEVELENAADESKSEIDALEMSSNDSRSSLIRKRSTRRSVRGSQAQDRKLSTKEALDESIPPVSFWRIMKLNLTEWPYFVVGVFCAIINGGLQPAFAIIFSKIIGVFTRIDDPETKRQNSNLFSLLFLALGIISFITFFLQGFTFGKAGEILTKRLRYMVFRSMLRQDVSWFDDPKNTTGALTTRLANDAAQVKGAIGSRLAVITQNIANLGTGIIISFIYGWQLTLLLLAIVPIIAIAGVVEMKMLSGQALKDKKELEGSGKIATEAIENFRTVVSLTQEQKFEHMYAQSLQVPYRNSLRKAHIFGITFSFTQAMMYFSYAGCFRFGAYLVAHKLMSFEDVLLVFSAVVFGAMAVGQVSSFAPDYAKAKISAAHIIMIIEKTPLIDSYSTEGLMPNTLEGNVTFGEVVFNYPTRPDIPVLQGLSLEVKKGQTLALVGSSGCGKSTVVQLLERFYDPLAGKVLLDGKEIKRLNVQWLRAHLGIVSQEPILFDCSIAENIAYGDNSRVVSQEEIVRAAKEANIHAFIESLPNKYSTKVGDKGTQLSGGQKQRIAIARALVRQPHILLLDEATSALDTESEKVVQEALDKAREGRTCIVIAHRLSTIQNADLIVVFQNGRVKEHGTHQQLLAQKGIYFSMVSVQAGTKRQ

| Structure (SMILES) | solubility in aqueous solution, pH dependence (aqueous solution) | solubility in common pharmaceutical solvents (ethanol, propylene glycol, 40% hydroxypropyl beta cyclodextrin) | inhibition of CYP 2C19 (CYP 2C19) | induction or inhibition of CYP3A4 enzyme ([1]; Hesketh et al., Cancer 2016) | inhibition of CYP 3A4 ([1]; in vitro) | inhibition of CYP 2D6 (CYP 2D6) | inhibition of CYP 2C9 (CYP 2C9) | inhibition of p-glycoprotein (p-glycoprotein) | solubility at physiological pH (pH 7.4) [mcg/ml] | solubility in water (water) | absorption after oral dosing [2] | protein bound to human plasma (human plasma) [%] |
| --- | --- | --- | --- | --- | --- | --- | --- | --- | --- | --- | --- | --- |
| C[C@@H](OC[C@@]1(c2ccccc2)CC[C@]2(CCC(=O)N2)CN1)c1cc(C(F)(F)F)cc(C(F)(F)F)c1.Cl [Rolapitant hydrochloride, rolapitant hydrochloride] | pH-dependent and is more soluble at lower pH | good solubility | – | – | – | – | – | – | – | – | – | – |
| C[C@@H](OC[C@@]1(c2ccccc2)CC[C@]2(CCC(=O)N2)CN1)c1cc(C(F)(F)F)cc(C(F)(F)F)c1 [Rolapitant, rolapitant] | – | – | did not inhibit | does not induce or inhibit | did not inhibit | did not inhibit | did not inhibit | did not inhibit | < 4 | practically insoluble | rapidly absorbed | 99.8 |
